Assay results as given in patent publication US7074806B2, “Glucocorticoid mimetics, methods of making them, pharmaceutical compositions, and uses thereof” (Boehringer Ingelheim Pharmaceuticals, Inc., priority 2002, dated 2006).

Biological target: T1, human glucocorticoid receptor (GR) complex (Homo sapiens, UniProt P04150)
T1 construct: made in house; host or cells: insect expression system (baculovirus lysate)
T1 sequence (P04150 1-777): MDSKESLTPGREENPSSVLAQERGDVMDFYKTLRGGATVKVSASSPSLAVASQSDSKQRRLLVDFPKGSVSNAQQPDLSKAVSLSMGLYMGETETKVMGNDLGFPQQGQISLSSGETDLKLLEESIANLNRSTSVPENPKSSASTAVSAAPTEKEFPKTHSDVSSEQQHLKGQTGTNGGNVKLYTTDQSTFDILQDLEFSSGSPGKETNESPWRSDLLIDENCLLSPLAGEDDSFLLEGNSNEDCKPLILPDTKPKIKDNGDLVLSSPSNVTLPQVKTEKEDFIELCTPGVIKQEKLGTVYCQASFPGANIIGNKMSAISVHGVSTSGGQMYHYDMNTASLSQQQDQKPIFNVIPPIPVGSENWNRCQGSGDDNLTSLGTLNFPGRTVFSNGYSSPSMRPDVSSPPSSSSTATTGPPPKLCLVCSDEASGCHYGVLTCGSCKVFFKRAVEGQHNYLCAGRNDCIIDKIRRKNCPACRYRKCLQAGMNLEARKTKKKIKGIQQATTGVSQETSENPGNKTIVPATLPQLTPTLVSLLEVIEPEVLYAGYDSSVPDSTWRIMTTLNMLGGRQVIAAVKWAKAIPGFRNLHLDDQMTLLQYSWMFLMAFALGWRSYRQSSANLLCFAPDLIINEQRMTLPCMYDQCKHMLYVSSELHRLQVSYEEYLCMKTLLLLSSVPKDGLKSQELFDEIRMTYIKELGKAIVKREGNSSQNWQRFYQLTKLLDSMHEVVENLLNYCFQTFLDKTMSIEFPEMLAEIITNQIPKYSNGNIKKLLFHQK
Assay: Glucocorticoid Receptor Competitive Binding Assay (fluorescence polarization)
Settings: competition with TAMRA-labeled dexamethasone for binding to GR; result in words only
Description: Compounds of the invention were evaluated for binding to the steroid receptor by a fluorescence polarization competitive binding assay. Detailed descriptions for preparation of recombinant glucocorticoid receptor (GR) complex used in the assay is described in Goldrick et al., U.S. provisional application No. 60/291,877, filed May 18, 2001 (corresponding to Goldrick et al., U.S. nonprovisional application No. 10/151,133, filed May 20, 2002, both incorporated herein by reference in their entirety. Preparation of the tetramethyl rhodamine (TAMRA)-labeled dexamethasone probe was accomplished using a standard literature procedure (M. Pons et al., J. Steroid Biochem., 1985, 22, pp. 267–273).
A. Glucocorticoid Receptor Competitive Binding Assay
Step 1. Characterization of the Fluorescent Probe
The wavelengths for maximum excitation and emission of the fluorescent probe should first be measured. An example of such a probe is rhodamine (TAMRA)-labeled dexamethasone.
The affinity of the probe for the steroid receptor was then determined in a titration experiment. The fluorescence polarization value of the probe in assay buffer was measured on an SLM-8100 fluorometer using the excitation and emission maximum values described above. Aliquots of expression vector lysate were added and fluorescence polarization was measured after each addition until no further change in polarization value was observed. Non-linear least squares regression analysis was used to calculate the dissociation constant of the probe from the polarization values obtained for lysate binding to the probe.
Step 2. Screening for Inhibitors of Probe Binding
This assay uses fluorescence polarization (FP) to quantitate the ability of test compounds to compete with tetramethyl rhodamine (TAMRA)-labeled dexamethasone for binding to a human glucocorticoid receptor (GR) complex prepared from an insect expression system. The assay buffer was: 10 mM TES, 50 mM KCl, 20 mM Na2MoO4.2H2O, 1.5 mM EDTA, 0.04% w/v CHAPS, 10% v/v glycerol, 1 mM dithiothreitol, pH 7.4. Test compounds were dissolved to 1 mM in neat DMSO and then further diluted to 10×assay concentration in assay buffer supplemented with 10% v/v DMSO. Test compounds were serially diluted at 10×assay concentrations in 10% DMSO-containing buffer in 96-well polypropylene plates. Binding reaction mixtures were prepared in 96-well black Dynex microtiter plates by sequential addition of the following assay components to each well: […] of 10×test compound solution, 85 μL of GR-containing baculovirus lysate diluted 1:170 in assay buffer, and 50 μL of 15 nM TAMRA-labeled dexamethasone. Positive controls were reaction mixtures containing no test compound; negative controls (blanks) were reaction mixtures containing 0.7 μM to 2 μM dexamethasone. The binding reactions were incubated for 1 hour at room temperature and then read for fluorescence polarization in the LJL Analyst set to 550 nm excitation and 580 nm emission, with the Rhodamine 561 dichroic mirror installed. IC50 values were determined by iterative non-linear curve fitting of the FP signal data to a 4-parameter logistic equation.

| Compound | activity in the GR binding assay |
| --- | --- |
| COc1ccc(F)cc1C(C)(C)CC(N)(Cc1cc2ccccc2[nH]1)C(F)(F)F (stereo not drawn) [Compound 2, 3-(5-Fluoro-2-methoxy-phenyl)-1-(1H-indol-2-ylmethyl)-3-methyl-1-trifluoromethyl-butylamine] | demonstrated activity |
| COc1ccc(F)cc1C(C)(C)CC(N)(Cc1ccnc2ccccc12)C(F)(F)F (stereo not drawn) [Compound 12, 3-(5-Fluoro-2-methoxy-phenyl)-3-methyl-1-quinolin-4-ylmethyl-1-trifluoromethyl-butylamine] | demonstrated activity |
| CNC(Cc1ccnc2ccccc12)(CC(C)(C)c1cc(F)ccc1OC)C(F)(F)F (stereo not drawn) [Compound 24, [3-(5-Fluoro-2-methoxy-phenyl)-3-methyl-1-quinolin-4-ylmethyl-1-trifluoromethyl-butyl]-methyl-amine] | demonstrated activity |
| CCCNC(Cc1ccnc2ccccc12)(CC(C)(C)c1cc(F)ccc1OC)C(F)(F)F (stereo not drawn) [Compound 26, [3-(5-Fluoro-2-methoxy-phenyl)-3-methyl-1-quinolin-4-ylmethyl-1-trifluoromethyl-butyl]-propyl-amine] | demonstrated activity |
| COc1ccc(F)cc1C(C)(C)CC(Cc1ccnc2ccccc12)(NCC(C)C)C(F)(F)F (stereo not drawn) [Compound 27, [3-(5-Fluoro-2-methoxy-phenyl)-3-methyl-1-quinolin-4-ylmethyl-1-trifluoromethyl-butyl]-isobutyl-amine] | demonstrated activity |
| CCCCNC(Cc1ccnc2ccccc12)(CC(C)(C)c1cc(F)ccc1OC)C(F)(F)F (stereo not drawn) [Compound 28, Butyl-[3-(5-fluoro-2-methoxy-phenyl)-3-methyl-1-quinolin-4-ylmethyl-1-trifluoromethyl-butyl]-amine] | demonstrated activity |
